Measured values as given in US4977189A, “Substituted guanidinedicarbonyl derivatives” (American Cyanamid Company, priority 1988, dated 1990).

What was measured:
Royal Hart mice = experiment: Hypoxic Survival Test; type: in vivo, mouse (Royal Hart); details: 10% oxygen; for responders at 10 mg/kg / responders at 25 mg/kg / responders at 50 mg/kg / responders at 100 mg/kg / responders at 200 mg/kg: Mus musculus, ip, 5 min, 30 minutes prior, survival after 5 minutes, read-out: % Survivors; for responders at 10 mg/kg: 10 mg/kg intraperitoneally; for responders at 25 mg/kg: 25 mg/kg intraperitoneally; for responders at 50 mg/kg: 50 mg/kg intraperitoneally; for responders at 100 mg/kg: 100 mg/kg intraperitoneally; for responders at 200 mg/kg: 200 mg/kg intraperitoneally
Procedure: A useful in vivo test that measures how effectively central nervous system-acting drugs enhance survival in a hypoxic environment, presumably by improving the ratio of energy supply to demand is known as the Hypoxic Survival Test. […] Drugs are tested by intraperitoneally injecting groups of mice 30 minutes prior to placing them in a hypoxic mixture and measuring survival. The rationale of this test is that drugs which enhance survival under hypoxic conditions without concomitant, depression or sedative side effects, may do so by enhancing energy metabolism, or by preserving normal brain function under conditions of reduced energy metabolism. Given the dependence of the brain on a constant supply of energy, drugs which have this property may have many far-reaching therapeutic indications, including recovery from stroke and closed head injury, as well as reducing the deleterious effects of the aging central nervous system.
Groups of 20 Royal Hart mice (6 weeks of age) are injected intraperitoneally with test compound (1-200 mg/kg) 30 minutes prior to placing them in a hypoxic mixture (10% oxygen in 90% […]) and measuring survival after 5 minutes.
A separate group of 20 mice is injected intraperitoneally with saline solution (0.01 cc/g of body weight) and processed as described above.
Still another group of 20 mice is injected intraperitoneally with 0.125 mg/kg of physostigmine and processed as described above.

[1] = system: Brain-Specific Receptors (3H-benzodiazepine binding); experiment: Inhibition of the Binding of 3H-Benzodiazepine to Brain-Specific Receptors of Rats; parameters: species or system rat (male albino, Wistar strain; whole cortex); details: 3H-diazepam (1.5 nM) or 3H-flunitrazepam (1.0 nM); rat cortex P2-fraction; 30 minutes in ice; test concentration not given
Text: A test utilized for the determination of anxiolytic activity is the measurement of the ability of test compounds to inhibit the binding of tritiated benzodiazepines to brain-specific recptors of warm-blooded animals. A modification of the method described by R. F. Squires, et al., Nature, 266, No. 21, pg 732 (April, 1977) and H. Mohler, et al., Science, 198, pg 849 (1977) was employed.
Male albino rats (Wistar strain, weighing 150-200 g each) were used. The test compounds were solubilized in either dimethylformamide, acetic acid, ethanol or hydrochloric acid.
Whole cortex of rats was homogenized gently in 20 volumes of ice-cold 0.32M sucrose, centrifuged twice at 1000 g for 10 minutes and then recentrifuged at 30,000 g for 20 minutes to produce a crude P2 -synaptosomal fraction. The P2 -fraction was either: (1) resuspended in twice the original volume in hypotonic 50 mM Tris.HCl (pH 7.4), or (2) resuspended in one-half the original volume in hypotonic 10 mM Tris.HCl (pH 7.4) and frozen (-20° C.) until time of use. Frozen P2 preparations were thawed and resuspended in four times the original homogenizing volume at time of assay.
The binding assay consisted of 300 μl of the P2 -fraction suspension (0.2-0.4 mg protein), 100 μl of test drug and 100 μl of ^3 H-diazepam (1.5 nM, final concentration) or ^3 H-flunitrazepam (1.0 nM, final concentration) which was added to 1.5 ml of 50 mM Tris.HCl (pH 7.4). Non-specific binding controls and total binding controls d 100 μl of diazepam (3 μM final concentration) and 100 μl of deionized water, respectively, in place of the test compound. Incubation for 30 minutes proceeded in ice and was terminated by filtration, under vacuum, through glass fiber filters. The filters were washed twice with 5 ml of ice-cold 50 mM Tris.HCl (pH 7.4) and placed in scintillation vials. After drying at 50°-60° C. for 30 minutes, 10 ml of diluent was added and the radioactivity determined in a scintillation counter.
Inhibition of binding was calculated by the difference between total binding and binding in the presence of test compound, divided by the total binding, X 100.

% Inhibition [1] [%]	SMILES	responders at 100 mg/kg (Royal Hart mice) [%]	other results
–	COc1cc(C(=O)N=C(NC(=O)c2ccccc2)Nc2ccc(C(N)=O)cc2)cc(OC)c1OC [N-[[[4-(Aminocarbonyl)phenyl]amino](benzoylamino)methylene]-3,4,5-trimethoxybenzamide]	–	responders at 10 mg/kg (Royal Hart mice): 50%; responders at 25 mg/kg (Royal Hart mice): 50%
–	NC(=O)c1ccc(NC(=NC(=O)c2ccccc2)NC(=O)C23CC4CC(CC(C4)C2)C3)cc1 [N-[[[4-(Aminocarbonyl)phenyl]amino](benzoylamino)methylene]tricyclo[3.3.1.1^3.7]decane-1-carboxamide]	–	responders at 50 mg/kg (Royal Hart mice): 42%
17	Cc1cccc(C(=O)N=C(NC(=O)c2cccc(C)c2)Nc2cccc(C(N)=O)c2)c1 [N,N'-[[3-(Aminocarbonyl)phenyl]carbonimidoyl]bis[3-methylbenzamide]]	–	–
10	COc1ccc(C(=O)NC(=NC(=O)c2ccc(C)cc2)Nc2ccccc2C(N)=O)cc1 [N-[[[2-(Aminocarbonyl)phenyl]amino][(4-methoxybenzoyl)amino]methylene]-4-methylbenzamide]	–	–
–	NC(=O)c1ccc(NC(=NC(=O)c2ccc(Br)cc2)NC(=O)c2ccccc2)cc1 [N-[[[4-(Aminocarbonyl)phenyl]amino](benzoylamino)methylene]-4-bromobenzamide]	43	responders at 10 mg/kg (Royal Hart mice): 42%; responders at 25 mg/kg (Royal Hart mice): 60%
–	NC(=O)c1ccc(NC(=NC(=O)c2ccc(F)cc2)NC(=O)c2ccc(Br)cc2)cc1 [N-[[[4-(Aminocarbonyl)phenyl]amino][(4-bromobenzoyl)amino]methylene]-4-fluorobenzamide]	44	responders at 25 mg/kg (Royal Hart mice): 40%
–	CCN(CC)CCNC(=NC(=O)c1ccc(C(F)(F)F)cc1)NC(=O)c1ccc(C(F)(F)F)cc1 [N,N'-[[2-(Diethylaminoethyl]carbonimidoyl]bis[4-(trifluoromethyl)benzamide]	65	responders at 10 mg/kg (Royal Hart mice): 45%; responders at 50 mg/kg (Royal Hart mice): 70%; responders at 200 mg/kg (Royal Hart mice): 85%
33	Cc1cccc(C(=O)N=C(NC(=O)c2ccccc2)Nc2ccc(C(N)=O)cc2)c1 [N-[[[4-(Aminocarbonyl)phenyl]amino](benzoylamino)methylene]-3-methylbenzamide]	–	–
17	COc1ccc(C(=O)N=C(NC(=O)c2ccc(OC)cc2)Nc2ccc(C(N)=O)cc2)cc1 [N,N'-[[4-(Aminocarbonyl)phenyl]carbonimidoyl]bis[4-methoxybenzamide]]	–	–
29	Cc1cccc(C(=O)NC(=Nc2ccc(C(=O)N(C)C)cc2)NC(=O)c2cccc(C)c2)c1 [4-[[Bis[(3-methylbenzoyl)amino]methylene]amino]-N,N-dimethylbenzamide]	–	–
–	CNC(=O)Oc1ccc2c(c1)[C@]1(C)CCN(C)[C@@H]1N2C [physostigmine, reference compound]	–	physostigmine treated mice that survive (Royal Hart mice; 0.125 mg/kg intraperitoneally, after 5 minutes, saline control mice 5-20%): 60-80%
–	COc1ccc(C(=O)NC(=NC(=O)c2ccc(C(F)(F)F)cc2)Nc2ccc(C(N)=O)cc2)cc1 [N-[[[4-(Aminocarbonyl)phenyl]amino][(4-methoxybenzoyl)amino]methylene]-4-(trifluoromethyl)benzamide]	47	responders at 50 mg/kg (Royal Hart mice): 55%
–	NC(=O)c1ccc(NC(=NC(=O)c2ccccc2)NC(=O)C=Cc2ccccc2)cc1 [N-[[[4-(Aminocarbonyl)phenyl]amino][(1-oxo-3-phenyl-2-propenyl)amino]methylene]benzamide]	40	–
–	Cc1cccc(C(=O)N=C(NC(=O)c2cccc(C)c2)Nc2ccccc2C(N)=O)c1 [N,N'-[[2-(Aminocarbonyl)phenyl]carbonimidoyl]bis[3-methylbenzamide]]	48	responders at 50 mg/kg (Royal Hart mice): 40%
17	CNC(=O)c1ccc(NC(=NC(=O)c2cccc(C)c2)NC(=O)c2cccc(C)c2)cc1 [N,N'[[4-[(Methylamino)carbonyl]phenyl]carbonimidoyl]bis[3-methylbenzamide]]	–	–
57	Cc1ccc(C(=O)N=C(NC(=O)c2ccc(Br)cc2)Nc2ccc(C(N)=O)cc2)cc1 [N-[[[4-(Aminocarbonyl)phenyl]amino][(4-bromobenzoyl)amino]methylene]-4-methylbenzamide]	–	–
22	NC(=O)c1ccc(NC(=NC(=O)Cc2ccccc2)NC(=O)c2ccccc2)cc1 [N-[[[4-(Aminocarbonyl)phenyl]amino](benzoylamino)methylene]benzeneacetamide]	–	–
–	NS(=O)(=O)c1ccc(CNC(=NC(=O)c2ccccc2)NC(=O)c2ccccc2)cc1 [N,N'-[[[4-(Aminosulfonyl)phenyl]methyl]carbonimidoyl]bisbenzamide]	35	responders at 10 mg/kg (Royal Hart mice): 50%
12	COc1ccc(C(=O)NC(=NC(=O)c2ccc(C)cc2)Nc2cccc(C(N)=O)c2)cc1 [N-[[[3-(Aminocarbonyl)phenyl]amino][(4-methoxybenzoyl)amino]methylene]-4-methylbenzamide]	–	–
14	CN(C)C(=O)c1ccc(NC(=NC(=O)c2ccccc2)NC(=O)c2ccccc2)cc1 [4-[[(Benzoylamino)(benzoylimino)methyl]amino]-N,N-dimethylbenzamide]	–	–
16	CCCCCCCCNC(=O)c1ccc(NC(=NC(=O)c2cccc(C)c2)NC(=O)c2cccc(C)c2)cc1 [N,N'-[[4-(Octylamino)carbonyl]phenyl]carbonimidoyl]bis[3-methylbenzamide]]	–	–
–	COc1ccc(C(=O)NC(=NC(=O)c2cccc(C)c2)Nc2ccc(C(N)=O)cc2)cc1 [N-[[[4-(Aminocarbonyl)phenyl]amino][(4-methoxybenzoyl)amino]methylene]-3-methylbenzamide]	50	responders at 10 mg/kg (Royal Hart mice): 50%; responders at 50 mg/kg (Royal Hart mice): 45%; responders at 200 mg/kg (Royal Hart mice): 45%
–	NC(=O)c1ccc(NC(=NC(=O)c2cccc(Br)c2)NC(=O)c2ccccc2)cc1 [N-[[[4-(Aminocarbonyl)phenyl]amino](benzoylamino)methylene]-3-bromobenzamide]	–	responders at 10 mg/kg (Royal Hart mice): 50%
–	NC(=O)c1ccc(NC(=NC(=O)c2ccc(C(F)(F)F)cc2)NC(=O)c2ccccc2)cc1 [N-[[[4-(Aminocarbonyl)phenyl]amino][benzoylamino]methylene]-4-(trifluoromethyl)benzamide]	–	responders at 50 mg/kg (Royal Hart mice): 45%
15	Cc1cccc(C(=O)N=C(NC(=O)c2ccccc2)Nc2cccc(C(N)=O)c2)c1 [N-[[[3-(Aminocarbonyl)phenyl]amino](benzoylamino)methylene]-3-methylbenzamide]	–	–
–	COc1ccc(C(=O)N=C(NC(=O)c2ccc(F)cc2)Nc2ccc(C(N)=O)cc2)cc1 [N-[[[4-(Aminocarbonyl)phenyl]amino][(4-fluorobenzoyl)amino]methylene]-4-methoxybenzamide]	42	responders at 25 mg/kg (Royal Hart mice): 45%; responders at 50 mg/kg (Royal Hart mice): 60%
–	NC(=O)c1ccc(NC(=NC(=O)c2cccs2)NC(=O)c2ccccc2)cc1 [N-[[[4-(Aminocarbonyl)phenyl]amino](benzoylamino)methylene]-2-thiophenecarboxamide]	–	responders at 10 mg/kg (Royal Hart mice): 50%; responders at 50 mg/kg (Royal Hart mice): 50%
–	COc1ccc(C(=O)N=C(NC(=O)c2ccc(C)cc2)Nc2ccc(C(N)=O)cc2)cc1 [N-[[[4-(Aminocarbonyl)phenyl]amino][4-methylbenzoyl)amino]methylene]-4-methoxybenzamide]	43	–
